Data: publication PMC8482877 (Biochemical and biophysical research communications, 2020)

Columns and labels:
[1] = Solubilization of DMPC lipid vesicles by peptides; assay type: physicochemical; details: DMPC vesicles 1 mg/mL in PBS, peptide 0.1 mg/mL, 24 °C, 660 nm
[2] = tested on: BHK cells expressing ABCA1; assay: Radiolabeled cholesterol efflux from ABCA1-BHK cells; assay type: cell-based; details: [3H]-cholesterol transferred from ABCA1-BHK cells to serum free medium containing peptides over 18 h; triplicates

VLESFKVSFLSALEEYTKKLNT
DMPC vesicle solubilization, comparison between peptides [1]: less effective than the other active peptides
ABCA1-mediated cholesterol efflux [2]: almost completely inactive
